Measured values as given in PubChem BioAssay (NCI).
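Dose response: 5 concentrations. Exposure: 48 h. Format: 96-well plates. Endpoint: linear interpolation; highest concentration if not reached. GI50 = concentration required for 50% inhibition of growth. The concentration for full growth arrest is given as TGI.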

Key:
Assay in all cases: NCI tumour cell line growth inhibition, 48 h
HCT-116 colon = tested on: HCT-116 colon
MDA-MB-435 = tested on: MDA-MB-435
NCI-H460 lung = tested on: NCI-H460 lung
OVCAR-5 ovarian = tested on: OVCAR-5 ovarian
CCRF-CEM leukemia = tested on: CCRF-CEM leukemia
SK-MEL-5 melanoma = tested on: SK-MEL-5 melanoma
COLO 205 colon = tested on: COLO 205 colon
SF-539 CNS = tested on: SF-539 CNS
MOLT-4 leukemia = tested on: MOLT-4 leukemia
OVCAR-8 ovarian = tested on: OVCAR-8 ovarian
MALME-3M melanoma = tested on: MALME-3M melanoma
SK-OV-3 ovarian = tested on: SK-OV-3 ovarian
MDA-N = tested on: MDA-N

SMILES	TGI (HCT-116 colon) [µM]	TGI (MDA-MB-435) [µM]	TGI (NCI-H460 lung) [µM]	TGI (OVCAR-5 ovarian) [µM]	TGI (CCRF-CEM leukemia) [µM]	TGI (SK-MEL-5 melanoma) [µM]	TGI (COLO 205 colon) [µM]	TGI (SF-539 CNS) [µM]	TGI (MOLT-4 leukemia) [µM]	TGI (OVCAR-8 ovarian) [µM]	TGI (MALME-3M melanoma) [µM]	TGI (SK-OV-3 ovarian) [µM]	TGI (MDA-N) [µM]	GI50 (MOLT-4 leukemia) [µM]
Oc1cccc2ccc(Br)nc12	> 100	> 100	> 100	> 100	> 100	> 100	> 100	> 100	> 100	> 100	> 100	> 100	> 100	–
COC(=O)/C(C#N)=C/c1cc(C(C)(C)C)c(O)c(C(C)(C)C)c1	10.5	18.4	5.75	8.51	9.69	3.39	2.78	11	> 29.6	33.6	20.4	8.04	13.3	–
O=C1c2c(O)cccc2Cc2cc(CO)cc(O)c21	16.7	15.5	8.04	15.2	> 100	3.75	4.9	–	57.9	12.8	5.37	–	11.5	–
CN1CCN(Cc2ccccc2)CC1CC#N (stereo unspecified)	> 100	> 100	> 100	> 100	> 100	> 100	> 100	> 100	> 100	> 100	> 100	> 100	> 100	–
CC(C)(C)NC(=S)N/N=C/c1ccccn1	1.02	> 100	> 100	> 100	–	> 46.4	> 100	27.6	–	> 40.7	> 100	> 100	> 100	–
Cc1ccc2c(c1)CC1(C2)Cc2ccc(C)cc2C1=O (stereo unspecified)	71.9	> 100	55.5	> 100	62.3	26	44.3	87.3	45.7	> 100	43.8	> 100	73.1	–
C[C@H]1S[C@H](c2c(F)cccc2F)n2c1nc1ccccc12	> 100	> 100	> 100	> 100	> 100	45.3	> 100	–	> 100	> 100	> 100	> 100	> 100	–
CCOC(=O)C1=NNC(C(=O)c2ccccc2)C1c1ccccc1 (stereo unspecified)	7	3.89	–	17.4	> 100	5.78	3.69	4.76	> 34.8	22	4.77	33.1	3.98	–
Nc1ncc2c(n1)-c1ccccc1OC2N1CCOCC1 (stereo unspecified)	> 100	> 100	> 100	> 100	> 100	> 100	> 100	> 100	> 100	> 100	> 100	> 100	> 100	–
Cc1cc(S(=O)(=O)NC2=NCC(C)(C)CN2)c(S)cc1Cl	75.8	85.1	> 100	51.1	–	33.7	> 100	> 100	–	71.8	> 100	> 100	83.4	–
CCOC(=O)c1csc(-c2cn(C)c3c2C(=O)C(OC)=CC3=O)n1	> 100	11.1	> 41.6	> 100	> 100	12.7	> 89.6	> 82.9	> 100	> 100	–	> 100	> 50.1	–
O=Cc1ccc(-c2ccc(S(=O)(=O)O)cc2)o1	> 100	> 100	> 100	> 100	–	> 100	> 100	> 100	> 100	> 100	> 100	> 100	> 100	–
CC(=O)c1cccc(Nc2nc3ccccc3c3[nH]c4ccccc4c23)c1	> 100	71.1	4.36	96.3	> 100	–	5.81	18	–	74.9	13.2	43.7	> 100	–
N[C@H]1CCN(c2c(F)cc3c(=O)c(C(=O)O)cn4c3c2Oc2c-4ccc3c2ccc2ccccc23)C1	> 35.3	> 39.6	2.42	> 100	–	> 100	> 100	> 100	> 100	> 100	> 100	–	> 53.6	0.266
O=C(O)CCC(NC(=O)c1ccc(CNc2nc3cc(C(F)(F)F)ccc3nc2C(=O)O)cc1)C(=O)O (stereo unspecified)	> 100	> 100	> 100	> 100	> 100	–	> 100	> 100	> 100	> 100	> 100	> 100	> 100	–
CC[C@]1(Cc2ccc(OC)c(OC)c2)C=[N+]([O-])O[C@H](OCc2ccccc2)[C@@H]1OC(C)=O	–	> 100	> 100	> 100	55.6	> 100	34.5	–	27.3	> 100	52.9	> 100	> 100	–
Nn1c(CCCCCCCCc2n[nH]c(=S)n2N)n[nH]c1=S	> 100	> 100	> 100	> 100	> 100	–	> 100	> 100	> 100	> 100	> 100	> 100	> 100	–
CCOC(=O)c1ccc(N(CCOS(=O)(=O)c2ccc(C)cc2)CCOS(=O)(=O)c2ccc(C)cc2)cc1	> 100	> 100	> 100	> 100	> 100	> 100	> 100	41.1	> 100	> 100	> 100	–	> 100	–
